Assay results reported in PMC8954204, “Synthesis and Evaluation of a ^18F-Labeled Ligand for PET Imaging of Colony-Stimulating Factor 1 Receptor” (Pharmaceuticals, 2022).
Values belong to the compound of their own block, whether it stands above or below them.

Assays:
CSF1R [1] = target: T1, CSF1R (Homo sapiens, UniProt P07333); experiment: FRET-based Z'-LYTE kinase assay, binding affinity for CSF1R; type: biochemical; settings: FRET-based method, 1 mM ATP, mean ± S.D. of three measurements
T1 construct: purchased Abcam
Experimental: The binding affinity of ligand 1 for CSF1R was measured using a fluorescence resonance energy transfer (FRET)-based method.
The final concentration of DMSO in the incubation mixture was 1%. The mixtures were incubated at room temperature for 1 h, followed by development reaction incubations at room temperature for 1 h. The fluorescence intensity of the incubation mixtures was measured (excitation, 400 nm; emission, 445 nm (donor) and 520 nm (acceptor)) using a Mithras^2 LB 943 monochromator multimode microplate reader (Berthold Technologies, Bad Wildbad, Germany), and the phosphorylation extent of the FRET-peptide was calculated. All experiments were performed in triplicate, and the IC50 values represent the average of three experimental determinations.

CSF1R [2] = test system: CSF1R; parameters: method as in PMID 33757319; settings: rhesus monkey; cited from earlier work
[3] = metabolism study, HPLC of brain homogenates and blood samples; type: in vivo, ICR mice; settings: control mice
Experimental: In order to confirm that the brain uptake was due to the radioligand, we analyzed the brain homogenates and blood samples of control mice using HPLC. […] However, approximately 65% of the radioligand in the blood samples was converted to polar radiometabolites within 30 min after injection (Figure S3).
ICR mice (n = 1 per time point) were injected with [^18F]1 (18.5 MBq) via a tail vein. At 5 and 30 min after injection, mice were sacrificed, and samples of brain and blood were obtained. The samples were homogenized in 1 mL of acetonitrile and centrifuged. The supernatants were analyzed by HPLC using an analytical column eluted with a 45:55 mixture of 0.05 M ammonium formate (aq.) and acetonitrile at a flow rate of 1 mL/min. Eluates were monitored using a NaI(T1) radioactivity detector.

CSF1R [4] = target: T1, CSF1R; experiment: binding study of radioligand on CSF1R-coated well plates
Experimental: A binding study of radioligand [^18F]1 for CSF1R was also performed using well plates coated with CSF1R.
A binding study of [^18F]1 for CSF1R was performed using detachable 96-well polystyrene plates (Nest Scientific, Rahway, NJ, USA). The plates were coated with 50 μL of CSF1R (200 μg/mL) in 0.05 M carbonate-bicarbonate buffer (pH 9.6). Non-coated plates were used for a control experiment. The CSF1R-coated and non-coated plates were incubated at 4 °C overnight and washed three times with PBS-T (20 mM PBS (pH 7.4) with 0.05% Tween-20). The unoccupied sites were blocked with blocking buffer (5% BSA in PBS-T) at room temperature for 1 h, and the plates were washed three times with PBS-T. [^18F]1 was dissolved in DMSO, and two-fold serial dilutions ranging from 1:100 to 1:400 were made from the radioligand solution. The diluted radioligand solutions were added to the CSF1R-coated and non-coated wells, which were then incubated at room temperature for 1 h. After incubation, the plates were washed three times with PBS-T. The wells were detached, and the radioligand bound to the wells was measured using a gamma counter and expressed as counts per minute (cpm). All experiments were performed in triplicate.

[5] = dynamic microPET/CT imaging, whole brain time activity curve; type: in vivo, ICR mice; settings: control and LPS mouse, whole brain TAC
From the text: Dynamic PET/CT images of control and LPS mice were acquired, and the brain uptake was higher in the LPS mouse than in the control mouse (Figure 4A). […] In the control mouse, there was uptake in the decreasing order of the thalamus, striatum, hypothalamus, frontal cortex, and cerebellum (Figure 4C). In the 5.5-week-old mice used in our study, the frontal cortex and cerebellum had similar levels of uptake, although the cerebral cortex has markedly higher CSF1R expression than does the cerebellum in older adult mice. In the LPS mouse, a pattern similar to that of the control mouse was observed, with high uptake in the thalamus and striatum, and intermediate to low uptake in the hypothalamus, cerebellum, and frontal cortex (Figure 4C).
Dynamic PET scans of mice (one control and one LPS) were initiated simultaneously with tail vein injection of [^18F]1 (7.4 ± 0.1 MBq/mouse) and performed for 60 min (15 s × 8 frames, 30 s × 10 frames, 60 s × 3 frames, 240 s × 5 frames, 300 s × 6 frames, 32 frames in total); CT images followed for 20 min. […]
Analysis of dynamic PET data was performed using the PMOD 3.308 software (PMOD Technologies, Zurich, Switzerland). […] Several volumes of interest (VOIs) were determined on the mouse brain template: whole brain, striatum (mean value of the left and right striata), thalamus, hypothalamus, frontal cortex, and cerebellum. […]

[6] = octanol-water partition coefficient; type: physicochemical; settings: 1-octanol/water; read-out: log P (octanol-water partition coefficient)
Experimental: Radioligand [^18F]1 was dissolved in 800 μL 1-octanol and mixed with 800 μL water, vortexed vigorously for 5 min, and centrifuged. Two layers were separated, and 100 μL aliquots of the 1-octanol and aqueous layers were removed and counted. Samples from the 1-octanol and aqueous layers were repartitioned until consistent values were obtained. The log P is expressed as the logarithm of the ratio of the counts per minute from octanol versus that of water.

[7] = ex vivo biodistribution in control, LPS and LPS+block mice; parameters: species or system ICR mice; settings: for blood uptake / brain uptake / femur uptake / kidney uptake / liver uptake / muscle uptake / spleen uptake: 45 min after i.v. injection, n = 4
Experimental: Ex vivo biodistribution studies were performed in three groups of mice (control, LPS, and LPS+block groups) at 45 min after intravenous (i.v.) injection of [^18F]1. […] Therefore, we performed the ex vivo biodistribution studies at 45 min after injection of [^18F]1 (Table 2). […] The relatively low level of inhibition can be attributed to the injection route and time of the blocking agent, i.p. administration 5 min prior to radioligand injection, which might not have allowed time for sufficient blocking. However, most of the PET radioligands currently developed for CSF1R imaging have low uptake or high non-specific binding in the brains of rodents and non-human primates. […] In this context, further blocking studies of [^18F]1 need to be conducted using the optimized injection time points of the blocking agents and using other potent CSF1R inhibitors as the blocking agents. […] In addition, these biodistribution data matched with the whole-body PET images of the control and LPS mice (Figure S2).
ICR male mice aged between 5 and 6 weeks were used in this study. The mice were provided drinking water and a normal diet ad libitum and were maintained under a 12 h light-dark cycle at 24 ± 1 °C with 50% humidity. The LPS-treated mouse model was prepared by injecting LPS (10 mg/kg in saline) i.p. into mice, and all experiments were carried out on the third day after LPS injection. Tissue radioactivity was counted using an automatic gamma counter (PerkinElmer, Waltham, MA, USA). MicroPET/CT images were acquired using an Inveon microPET/CT scanner (Siemens Medical Solutions, Knoxville, TN, USA).
ICR mice were divided into three groups: control, LPS, and LPS+block groups (n = 4 per group). […] Control and LPS-treated mice were injected i.p. with 100 μL of vehicle (10% DMSO-saline) at 5 min prior to the radioligand injection. At 45 min after radioligand injection, mice were sacrificed by cervical dislocation, and the blood and major tissues (brain, muscle, femur, liver, spleen, and kidney) were separated, weighed, and counted. Data are expressed as a percentage of injected dose per gram of tissue (% ID/g).

[8] = LPS+block mice (CPPC 1 mg/kg i.p. 5 min before)

T1 sequence (P07333 20-972, species assumed): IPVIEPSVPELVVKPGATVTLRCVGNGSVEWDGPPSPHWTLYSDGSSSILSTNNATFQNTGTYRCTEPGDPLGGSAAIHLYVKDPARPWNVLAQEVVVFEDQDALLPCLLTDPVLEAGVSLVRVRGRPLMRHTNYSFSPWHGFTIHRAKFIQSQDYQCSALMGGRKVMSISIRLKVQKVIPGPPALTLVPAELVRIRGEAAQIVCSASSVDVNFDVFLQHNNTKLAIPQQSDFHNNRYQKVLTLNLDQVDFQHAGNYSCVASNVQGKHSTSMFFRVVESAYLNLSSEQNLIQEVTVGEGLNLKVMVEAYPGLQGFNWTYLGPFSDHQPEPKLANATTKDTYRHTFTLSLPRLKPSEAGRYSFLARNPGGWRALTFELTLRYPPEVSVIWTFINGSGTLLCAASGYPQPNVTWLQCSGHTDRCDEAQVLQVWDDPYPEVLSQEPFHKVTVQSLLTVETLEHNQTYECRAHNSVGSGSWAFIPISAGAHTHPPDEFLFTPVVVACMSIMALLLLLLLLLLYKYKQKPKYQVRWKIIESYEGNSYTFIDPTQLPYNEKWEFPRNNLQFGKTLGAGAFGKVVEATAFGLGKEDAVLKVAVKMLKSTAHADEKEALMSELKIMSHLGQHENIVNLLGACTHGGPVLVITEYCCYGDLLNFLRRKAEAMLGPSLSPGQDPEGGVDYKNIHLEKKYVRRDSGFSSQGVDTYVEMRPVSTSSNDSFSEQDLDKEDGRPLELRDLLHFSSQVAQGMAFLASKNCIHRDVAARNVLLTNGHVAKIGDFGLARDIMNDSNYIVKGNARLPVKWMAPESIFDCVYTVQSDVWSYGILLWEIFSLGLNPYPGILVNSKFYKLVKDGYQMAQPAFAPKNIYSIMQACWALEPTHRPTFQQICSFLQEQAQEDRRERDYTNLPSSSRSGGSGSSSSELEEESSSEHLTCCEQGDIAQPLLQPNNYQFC

IC50 (CSF1R [1]): 3.42 ± 0.33 nM
Structure (SMILES): N#Cc1ccc(C(=O)Nc2ccc(N3CCN(CCF)CC3)cc2N2CCCCC2)o1 [Ligand 1, 5-Cyano-N-(4-(4-(2-fluoroethyl)piperazin-1-yl)-2-(piperidin-1-yl)phenyl)furan-2-carboxamide]

Structure (SMILES): COc1ccc(COc2ccc(Cc3cnc(N)nc3N)cc2O[11CH3])cc1 [[^11C]GW2580, 5-(3-[^11C]methoxy-4-((4-methoxybenzyl)oxy)benzyl)pyrimidine-2,4-diamine]
blocking of brain uptake with GW2580 (CSF1R [2]): 30%

radioligand in blood converted to polar radiometabolites ([3]; blood samples, within 30 min after injection): approximately 65%
state of radioligand in the brain ([3]; brain homogenates at 5 and 30 min after injection): intact
radioligand bound to CSF1R-coated wells relative to non-coated wells (control) (CSF1R [4]; 0.93 kBq radioligand): 3.31 fold
radioligand bound to CSF1R-coated wells relative to non-coated wells (control) (CSF1R [4]; 1.85 kBq radioligand): 5.07 fold
radioligand bound to CSF1R-coated wells relative to non-coated wells (control) (CSF1R [4]; 3.7 kBq radioligand): 7.14 fold
time of peak whole brain uptake after radioligand injection [5]: ≤ 3 min
logP [6]: 2.3 ± 0.01
blood uptake ([7]; LPS mice): 1.21 ± 0.11 % ID/g
brain uptake ([7]; LPS mice): 2.14 ± 0.19 % ID/g
femur uptake ([7]; LPS mice): 1.95 ± 0.44 % ID/g
kidney uptake ([7]; LPS mice): 2.23 ± 0.08 % ID/g
liver uptake ([7]; LPS mice): 6.04 ± 0.91 % ID/g
muscle uptake ([7]; LPS mice): 1.03 ± 0.07 % ID/g
spleen uptake ([7]; LPS mice): 2.47 ± 0.19 % ID/g
blood uptake [7, 8]: 1.30 ± 0.11 % ID/g
brain uptake [7, 8]: 1.67 ± 0.16 % ID/g
femur uptake [7, 8]: 2.11 ± 0.37 % ID/g
kidney uptake [7, 8]: 2.04 ± 0.10 % ID/g
liver uptake [7, 8]: 3.15 ± 0.62 % ID/g
muscle uptake [7, 8]: 1.20 ± 0.19 % ID/g
spleen uptake [7, 8]: 1.45 ± 0.13 % ID/g
blood uptake ([7]; control mice): 0.93 ± 0.05 % ID/g
brain uptake ([7]; control mice): 1.20 ± 0.06 % ID/g
femur uptake ([7]; control mice): 1.80 ± 0.09 % ID/g
kidney uptake ([7]; control mice): 1.97 ± 0.05 % ID/g
liver uptake ([7]; control mice): 6.87 ± 0.48 % ID/g
muscle uptake ([7]; control mice): 0.96 ± 0.10 % ID/g
spleen uptake ([7]; control mice): 1.58 ± 0.20 % ID/g
Structure (SMILES): N#Cc1ccc(C(=O)Nc2ccc(N3CCN(CC[18F])CC3)cc2N2CCCCC2)o1 [[^18F]1, 5-cyano-N-(4-(4-(2-[^18F]fluoroethyl)piperazin-1-yl)-2-(piperidin-1-yl)phenyl)furan-2-carboxamide]
increase of brain uptake in LPS mice compared to control mice ([7]; 45 min after radioligand injection): 78%
